The source made the active and inactive calls. The rule behind the calls is not given here.
Species on record: Homo sapiens
Assay: Cytotoxicity against human Kato 3 cells
Format: functional, cell-based

Row | SMILES | Activity
1 | CC1(C)CC[C@]2(C(=O)O[C@@H]3OC[C@H](O)[C@H](O)[C@H]3O)CC[C@]3(C)C(=CC[C@@H]4[C@@]5(C)C[C@H](O)[C@H](O)[C@@](C)(CO)[C@@H]5[C@H](O)C[C@]43C)[C@@H]2C1 | inactive
2 | CC1(C)CC[C@]2(C(=O)O[C@@H]3OC[C@H](O)[C@H](O)[C@H]3O)CC[C@]3(C)C(=CC[C@@H]4[C@@]5(C)CC(=O)[C@H](O)[C@@](C)(CO)[C@@H]5[C@H](O)C[C@]43C)[C@@H]2C1 | inactive
3 | C[C@@H]1O[C@@H](O[C@H]2[C@H](OC(=O)[C@]34CCC(C)(C)C[C@H]3C3=CC[C@@H]5[C@@]6(C)C[C@H](O)[C@H](O)[C@@](C)(CO)[C@@H]6[C@H](O)C[C@@]5(C)[C@]3(C)CC4)OC[C@H](O)[C@@H]2O)[C@H](O)[C@H](O)[C@H]1O | inactive
4 | CC1(C)CC[C@]2(C(=O)O[C@@H]3OC[C@H](O)[C@H](O)[C@H]3O)CC[C@]3(C)C(=CC[C@@H]4[C@@]5(C)CC(=O)[C@H](O[C@@H]6O[C@H](CO)[C@@H](O)[C@H](O)[C@H]6O)[C@@](C)(CO)[C@@H]5[C@H](O)C[C@]43C)[C@@H]2C1 | inactive
